{"source": "patent US20140050670A1", "about": "“MULTIFUNCTIONAL NANOPARTICLES” (THE UNIVERSITY OF WESTERN AUSTRALIA, priority 2010, published 2014)", "key": {"PC12 cells": {"system": "PC12 cells", "experiment": "Intracellular calcium quantification after glutamate challenge (Fura-2)", "format": "cell-based, rat", "conditions": "glutamate 10 mM, 24 hr; nanospheres 25 μg mL^−1, free lomerizine 1 μM; relative to ENP; dihydrochloride", "description": "The pH in early endosomes is mildly acidic and falls below 5 as endosomes mature, so release of lomerizine from nanospheres could be triggered under these conditions. Here, we administered lomerizine to PC12 cells using nanospheres, and measured intracellular calcium concentrations after glutamate challenge to see if intracellular release of lomerizine could be employed for neuroprotection. PC12 cells express both N- and L-type VGCCs, but not T-type channels, and in undifferentiated PC12 cells, glutamate exposure (1-10 mm) over 24 hr causes oxidative stress and increased [Ca^2+]i.\nCells receiving nanosphere treatments were incubated with nanospheres containing lomerizine, with or without modification with PEI (LNP+PEI and LNP−PEI respectively), or nanospheres containing no lomerizine but with PEI modification (ENP). […]\nFor experiments, cells were seeded in 24-well plates containing 10 mm glass coverslips coated with poly(l-lysine) at a cell density of 5.0×10^4 mL^−1. […] After a further 24 hr, [Ca^2+]i was quantified as follows. […] Fluorescent data were measured on a Hamamatsu Orca ER digital camera attached to an inverted Nikon TE2000-U microscope, and analysed using Metamorph v6.3. […] [Ca^2+]i was calculated according to the equation: […]"}, "[1]": {"conditions": "humans; cited from earlier work"}, "[2]": {"conditions": "rats, 24 hr after oral administration; cited from earlier work"}, "[3]": {"system": "L-, T- and N-type Ca^2+ channels", "conditions": "cited from earlier work"}, "[4]": {"system": "NMDA, kainate or AMPA binding sites", "conditions": "cited from earlier work"}}, "data": [{"smiles": "COc1ccc(CN2CCN(C(c3ccc(F)cc3)c3ccc(F)cc3)CC2)c(OC)c1OC.Cl.Cl", "note": "[Lomerizine, 1-[bis(4-fluorophenyl)methyl]-4-(2,3,4-trimethoxybenzyl)piperazine dihydrochloride]", "values": [{"measurement": "intracellular calcium [Ca^2+]i after glutamate", "setting": "PC12 cells", "value": "significant (p≦0.001) decrease"}, {"measurement": "elimination half-life", "setting": "[1]", "value": 108, "unit": "h"}, {"measurement": "dose excreted in the feces", "setting": "[2]", "value": 51.7, "unit": "%"}, {"measurement": "dose excreted in urine", "setting": "[2]", "value": 4.1, "unit": "%"}, {"measurement": "calcium channel blockade selectivity", "setting": "[3]", "value": "selectively blocks L- and T-type Ca^2+ channels, but not N-type channels"}, {"measurement": "affinity for NMDA, kainate or AMPA binding sites", "setting": "[4]", "value": "no reported affinity"}]}]}
